In general, melting point refers to the temperature, or range, at which the solid turns liquid.

Molecule `CS(=O)(=O)c1ccc(C(=O)C2C(=O)CCCC2=O)c(Cl)c1OCc1cc(-c2ccccc2)no1` [1.70, 2-(2-Chloro-3-(3-phenylisoxazol-5-yl)methoxy-4-methylsulfonylbenzoyl)cyclohexane-1,3-dione] displayed a melting point of 72 to 78 °C.

These data come from patent US6448201B1, “Benzoylcyclohexanediones and benzoylpyrazoles, their preparation, and their use as herbicides and plant growth regulators” (Aventis CropScience GmbH, priority 1999, dated 2002).
